Conditions: the rest remains in inactive suspension

## [Ca+2].[F-].[F-] [CaF2, Calcium-Fluoride]
  amount going into solution in water: 16 ppm
